Square brackets hold non-standard residues; d marks the D form. Peptide text beside a SMILES is read from it. Dmt = Cc1cc(O)cc(C)c1C[C@H](N)C(=O)O
What was measured:
[1] = system: several mammalian cell types; details: energy-independent manner; cited from earlier work
[2] = Survival during 6 weeks treatment after coronary occlusion; type: in vivo, rat; details: 74 rats randomized to peptide or water, following 6 weeks treatment
Protocol: Rats were anesthetized, ventilated, and a thoracotomy performed in the left 4th intercostal space. Temperature was maintained at 36° C. by placing the rats on a heating pad during the procedure. The pericardium was excised and the proximal left coronary artery isolated and permanently occluded with a suture. Coronary artery occlusion was confirmed by cyanosis and akinesis of the anterior wall of the ventricle. The chest was closed, air evacuated, and the rats allowed to recover. Analgesia was administered per the veterinarian. An echocardiogram was obtained at approximately 15 minutes post coronary artery occlusion. At 2 hours rats were randomized to receive chronic daily D-Arg-2′6′-Dmt-Lys-Phe-NH2 (delivered subcutaneously by an Alzet Osmotic Pump—3 mg/kg/day) or water. […] Heart rate and blood pressure were measured. A Millar catheter was inserted into the left ventricle and LV systolic pressure, LV end diastolic pressure, +dP/dt, and −dP/dt were measured. […] Postmortem LV volume was measured by filling the LV cavity with fluid and measuring the total fluid. […] Quantitative histologic analysis included: total circumference, scar circumference, non-infarcted wall circumference, total LV area, total LV cavity area, LV wall thickness (at several points), non-infarcted wall thickness; myocardial infarct expansion index. […]

In the case of 2′,6′-Dmt-D-Arg-Phe-Lys-NH2, the “penetration of the plasma membrane” value [1] is given as “readily penetrates”.
In the case of `Cc1cc(O)cc(C)c1C[C@H](NC(=O)[C@H](N)CCCNC(=N)N)C(=O)N[C@@H](CCCCN)C(=O)N[C@@H](Cc1ccccc1)C(N)=O` [D-Arg-2′6′-Dmt-Lys-Phe-NH2] (H-[dR][Dmt]KF-NH2), the deaths during treatment [2] is reported as “no rats died”.

Source: patent US11266709B2, “Methods for the regulation of matrix metalloproteinase expression” (Stealth BioTherapeutics Corp, priority 2013, dated 2022)
